From patent US11642332B2, “(2R,4R)-5-(5′-chloro-2′-fluorobiphenyl-4-yl)-2-hydroxy-4-[(5-methyloxazole-2-carbonyl)amino]pentanoic acid” (THERAVANCE BIOPHARMA R&D IP, LLC, priority 2015, dated 2023) come the findings set out here.

A word on the bioavailability: it is dose-corrected exposure relative to a reference, in per cent.

The nature of data set [1]: IV/PO pharmacokinetic study in rats. The note with it: rat; for AUC(0-t): read-out: AUClast Mean. Also noted: AUC(0-t): concentration or dose not given beside the values. In kind it is in vivo, male Sprague-Dawley rats. The protocol:
Each rat or dog PK study began with formulation of the test compound. Appropriate masses of each test compound were added into a volume of vehicle (e.g. 5% sodium bicarbonate, 5% dextrose in H2O) such that the final concentration of each compound was appropriate to be dosed at 2 mL/kg. Although a homogenous suspension were acceptable for oral dosing, intravenous dosing solutions were sterile-filtered (0.2 μm) prior to dosing to ensure no particulates were administered.
In the rat study, pre-cannulated male Sprague-Dawley rats (3 per route) between 8 and 10 weeks of age were obtained from Harlan Laboratories (Indianapolis, Ind.). Rats received either a single oral gavage or a single intravenous (via lateral tail vein) dose of the dosing solution. The final dose was typically 0.5-3 mg/kg. Serial blood samples were harvested via the cannula implanted in the jugular vein at 3 minutes, 15 minutes, 30 minutes, 1 hour, 2 hours, 4 hours, 6 hours, and 24 hours post-dose. Sampling was performed either manually or using automated blood samplers. Samples were collected into microtainer tubes containing EDTA as the anticoagulant and were processed to plasma by refrigerated centrifugation.
Plasma samples were extracted with 3 volumes of MeCN containing a suitable internal standard. Extracts were reconstituted into 3 volumes of water containing 1% formic acid, and analyzed via HPLC-coupled MS/MS. Plasma concentration-time data were analyzed using the Phoenix software (Pharsight Corp., St. Louis, Mo.) to calculate pharmacokinetic parameters.
Plasma clearance was determined from the intravenous arm of the study, and represents the rate at which plasma is cleared of drug. It is equal to the dose divided by the area under the plasma concentration-time curve. In addition to plasma clearance, it is also essential for an orally administered drug to reach efficacious systemic levels following oral delivery. Oral bioavailability is a measurement of plasma exposures following oral administration relative to exposures following intravenous administration.

Data set [2] can be described thus: Renal excretion of Compound 1 in rat. In kind it is in vivo, male Sprague Dawley rats. The note with it: IV 0.5 mg/kg. How it is done:
(§1) An important factor for insuring appropriate long term drug dosing and correct steady-state drug concentrations in patients is drug clearance. In general, decreased drug clearance results in higher drug concentrations and greater drug effects. In order to understand renal clearance of Compound 1, the percent of administered dose recovered in urine following a single IV dose was assessed in three animal species. Three separate studies in male Sprague Dawley rats, male beagle dogs and male cynomolgus monkeys, respectively, were conducted and the procedure and experimental results are described below.
Male Sprague Dawley rats (N=3), having body weights of 0.348 to 0.362 kg, received an IV dose of Compound 1 at 0.5 mg/kg as part of a dosing cassette. Compound 1 was dissolved in 5% NaHCO3 in D5W (5% dextrose in water, pH 7.4) and filtered through a […] polyvinyl difluoride (PVDF) syringe filter prior to administration. The rats had access to food ad libitum before and after administration of Compound 1. Urine samples were collected in metabolic cages and maintained on frozen dry ice during collection. The samples were thawed and the volume of the urine was recorded. An aliquot of the urine sample was transferred to a polypropylene storage tube, frozen and stored (−80° C.) prior to bioanalysis.
Rat urine concentrations of Compound 1 were determined by LC/MS/MS. […]

A short description of data set [3]: Renal excretion of Compound 1 in monkey. The format is in vivo, male cynomolgus monkeys. The conditions noted are these: IV 1 mg/kg. How it is done:
as §1
Male cynomolgus monkeys (N=3), having body weights of 4.42-5.81 kg, received an IV dose of compound 1 at 1 mg/kg. Compound 1 was dissolved in PEG-200:ethanol:water (40:10:50) and filtered through a […] polyvinyl difluoride (PVDF) syringe filter prior to administration. The monkeys had access to food ad libitum before and after administration of Compound 1. Urine samples were collected on dry ice during the collection interval periods, the sample volumes were recorded, and the urine acidified with acetic acid to a final concentration of approximately 2% acetic acid. Aliquots were obtained and frozen (−70° C.) prior to bioanalysis.
Monkey urine concentrations of Compound 1 were determined by LC/MS/MS. Urine samples were thawed and diluted in plasma K2EDTA (1:4). […]

Where two headings read alike, the source gives them in different places.

Regarding `Cc1cnc(C(=O)N[C@H](Cc2ccc(-c3cc(Cl)ccc3F)cc2)C[C@@H](O)C(=O)O)o1` [Compound 1, (2R,4R)-5-(5′-Chloro-2′-fluorobiphenyl-4-yl)-2-hydroxy-4-[(5-methyloxazole-2-carbonyl)amino]pentanoic Acid], the AUC(0-t) in data set [1] (male, Sprague-Dawley, plasma, IV) came out at 610 ng·h/mL; in data set [1] (male, Sprague-Dawley, plasma, PO) it was 400 ng·h/mL. Moreover, the bioavailability in data set [1] (male, Sprague-Dawley, plasma, PO vs IV AUClast) is 67%. Also, the “CLlast Mean” value in data set [1] (IV, dose divided by AUClast) came out at 13.8 mL/min/kg. The figures for the “Amount of Compound 1 Excreted in Urine over Collection Period (0-24 hrs) Mean” value in data set [2] and in data set [3] were 0.0462 µg and 157 µg, respectively.
